Assay results reported in patent publication EP0123528B1, “Pharmaceutical composition for the treatment of hair loss” (Mortimer, Christopher Harry, Dr., priority 1983, dated 1984).

Tests used:
[1] = system: common baldness in men; test: Unit Area Trichogram (hair density); format: in vivo; settings: for producing hair growth in common baldness: alone: oestradiol benzoate 0.1%, medroxyprogesterone acetate 0.1%, 3,3-,5-triiodo-L-thyronine 20 pg in 3 ml of solution, or any two of the three
[2] = Hormone results during treatment; format: in vivo; settings: patient, after 6 months of systemic treatment
Experimental: Initially […] began treatment with medroxyprogesterone acetate starting with 5 mg daily increasing to 40 mg daily at 6 months.
At this time the following hormone results were obtained:
After 6 months of the same dose of systemic medroxyprogesterone acetate plus Trichogen II the following results were obtained: […]

[3] = Semen analysis during treatment; format: in vivo, patient; settings: after 6 months of systemic treatment
Experimental: Initially […] began treatment with medroxyprogesterone acetate starting with 5 mg daily increasing to 40 mg daily at 6 months. At this time the following hormone results were obtained: After 6 months of the same dose of systemic medroxyprogesterone acetate plus Trichogen II the following results were obtained: […]

C[C@]12CC[C@@H]3c4ccc(OC(=O)c5ccccc5)cc4CC[C@H]3[C@@H]1CC[C@@H]2O [oestradiol benzoate]
producing hair growth in common baldness ([1]; topical): not effective

N[C@H](Cc1cc(I)c(Oc2ccc(O)c(I)c2)c(I)c1)C(=O)O [3,3-,5-triiodo-D-thyronine free acid, 3,3-,5-Triiodo-D-thyronine free acid]
substitute for the -L-form of 3,3-,5-triiodothyronine ([1]; topical, in any concentration): not an effective substitute

CC(=O)O[C@]1(C(C)=O)CC[C@H]2[C@@H]3C[C@H](C)C4=CC(=O)CC[C@]4(C)[C@H]3CC[C@@]21C [medroxyprogesterone acetate]
Testosterone ([2]; 5 mg daily increasing to 40 mg daily, n 10—32): 27.0 nmol/L | Dihydrotestosterone ([2]; 5 to 40 mg daily, n 0.7—2.7): 2.1 nmol/L | SHBG ([2]; 5 to 40 mg daily, n 18—40): 36.0 nmol/L | Oestradiol ([2]; 5 to 40 mg daily, n 50—180): 171.0 pmol/L | 17 Alpha hydroxyprogesterone ([2]; n 0.6—6.0): 10.1 nmol/L | Androstenedione ([2]; n 3.1—10.0): 4.9 nmol/L | Dehydroepiandrosterone sulphate (DHEAS) ([2]; n 5—9): 9.4 µmol/L | Semen analysis: Total count ([3]; patient (previous orchidopexy), n greater than 80 millions): 5 millions | Semen analysis: Motility ([3]; patient, n greater than 60%): 10% | Semen analysis: Abnormal forms ([3]; patient, n up to 25%): 35% | Meaningful hair density (hairs greater than 40 µm in diameter/cm^2), Frontal ([1]; patient, after 6 months of systemic treatment, before treatment 215, n 232—340): 179 (n 232—340) hairs/cm^2 | Meaningful hair density (hairs greater than 40 µm in diameter/cm^2), Occipital ([1]; patient, after 6 months of systemic treatment, before treatment 246, n 213—317): 271 (n 213—317) hairs/cm^2 | Total hair density, Occipital ([1]; patient, after 6 months of systemic treatment, before treatment 251, n 261—356): 280 (n 261—356) hairs/cm^2 | Total hair density, Frontal ([1]; patient, after 6 months of systemic treatment, before treatment 263, n 256—393): 248 (n 256—393) hairs/cm^2 | producing hair growth in common baldness ([1]; topical): not effective

N[C@@H](Cc1cc(I)c(Oc2ccc(O)c(I)c2)c(I)c1)C(=O)O [3,3-,5-triiodo-L-thyronine]
producing hair growth in common baldness ([1]; topical): not effective
